Measurements reported in PubChem BioAssay AID248 (DTP/NCI, 2004).
Where “and” joins values, the source holds several entries; their conditions need not be identical. Equal entries are not always repeated. Toxic doses and inconclusive results are not listed. Rule as the data show it: active = T/C of 150% or more; inactive = T/C below 125%.

Test system: L1210 leukemia ip in BDF1 mice, survival T/C
Experiment: NCI In Vivo Anticancer Drug Screen. Data for tumor model L1210 Leukemia (intraperitoneal) in B6D2F1 (BDF1) mice
Conditions: endpoint: mean survival time, higher = longer survival
Summary of the method: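 Each compound was tested against a transplantable tumor grown in mice. The endpoint was survival, with treated animals benchmarked against vehicle controls as a simple ratio.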

[1] = dose: 100.0 mg/kg/injection, schedule: Q04DX003 (ip), vehicle: saline
[2] = dose: 200.0 mg/kg/injection, schedule: Q04DX003 (ip), vehicle: saline
[3] = dose: 400.0 mg/kg/injection, schedule: Q04DX003 (ip), vehicle: saline
[4] = dose: 100.0 mg/kg/injection, schedule: Q01DX001 (ip), vehicle: saline with Tween-80
[5] = dose: 200.0 mg/kg/injection, schedule: Q01DX001 (ip), vehicle: saline with Tween-80
[6] = dose: 400.0 mg/kg/injection, schedule: Q01DX001 (ip), vehicle: saline with Tween-80
[7] = dose: 100.0 mg/kg/injection, schedule: Q01DX001 (ip), vehicle: Klucel (hydroxypropylcellulose) (HPC)
[8] = dose: 200.0 mg/kg/injection, schedule: Q01DX001 (ip), vehicle: Klucel (hydroxypropylcellulose) (HPC)
[9] = dose: 400.0 mg/kg/injection, schedule: Q01DX001 (ip), vehicle: Klucel (hydroxypropylcellulose) (HPC)
[10] = dose: 100.0 mg/kg/injection, schedule: Q04DX003 (ip), vehicle: saline with Tween-80
[11] = dose: 200.0 mg/kg/injection, schedule: Q04DX003 (ip), vehicle: saline with Tween-80
[12] = dose: 75.0 mg/kg/injection, schedule: Q01DX001 (ip), vehicle: saline
[13] = dose: 150.0 mg/kg/injection, schedule: Q01DX001 (ip), vehicle: saline
[14] = dose: 25.0 mg/kg/injection, schedule: Q01DX009 (ip), vehicle: saline with Tween-80
[15] = dose: 50.0 mg/kg/injection, schedule: Q01DX009 (ip), vehicle: saline with Tween-80
[16] = dose: 100.0 mg/kg/injection, schedule: Q01DX009 (ip), vehicle: saline with Tween-80
[17] = dose: 100.0 mg/kg/injection, schedule: Q01DX009 (ip), vehicle: saline
[18] = dose: 200.0 mg/kg/injection, schedule: Q01DX009 (ip), vehicle: saline

Measured: T/C

CC(C)C(C(=O)O)c1ccccc1 (stereo not given)
inactive: [1] 100 % of control | [2] 112 % of control | [3] 107 % of control

CCOc1cccc(Cc2cn(Cc3cccc(NC(=O)c4ccccc4)c3)c(=O)[nH]c2=O)c1
inactive: [4] 93 % of control | [5] 96 % of control | [6] 95 % of control

C/C=C(\C#N)c1ccc(-c2ccccc2)cc1
inactive: [4] 94 % of control | [5] 91 % of control | [6] 98 % of control

Cc1ccc(S(=O)(=O)c2ccc(C)c([N+](=O)[O-])c2)cc1[N+](=O)[O-]
inactive: [7] 104 % of control | [8] 118 % of control | [9] 96 % of control

COC1OC(CO)C(OS(=O)(=O)c2ccc(C)cc2)C(C(=O)Oc2ccccc2)C1OC(=O)c1ccccc1 (stereo not given)
inactive: dose: 50.0 mg/kg/injection, schedule: Q04DX002 (ip), vehicle: saline with Tween-80 93 % of control | dose: 100.0 mg/kg/injection, schedule: Q04DX002 (ip), vehicle: saline with Tween-80 104 % of control | dose: 200.0 mg/kg/injection, schedule: Q04DX002 (ip), vehicle: saline with Tween-80 90 % of control

C/C(=N/N=C(N)N)C(C)C
inactive: dose: 15.0 mg/kg/injection, schedule: Q01DX Z (ip), vehicle: carboxymethylcellulose (CMC) 102 % of control | dose: 27.0 mg/kg/injection, schedule: Q01DX Z (oral), vehicle: carboxymethylcellulose (CMC) 95 % of control | dose: 30.0 mg/kg/injection, schedule: Q01DX Z (ip), vehicle: carboxymethylcellulose (CMC) 100 % of control | dose: 40.0 mg/kg/injection, schedule: Q01DX Z (oral), vehicle: carboxymethylcellulose (CMC) 98 % of control | dose: 60.0 mg/kg/injection, schedule: Q01DX Z (ip), vehicle: carboxymethylcellulose (CMC) 92 % of control | dose: 60.0 mg/kg/injection, schedule: Q01DX Z (oral), vehicle: carboxymethylcellulose (CMC) 106 % of control | dose: 90.0 mg/kg/injection, schedule: Q01DX Z (oral), vehicle: carboxymethylcellulose (CMC) 98 % of control | dose: 120.0 mg/kg/injection, schedule: Q01DX Z (oral), vehicle: carboxymethylcellulose (CMC) 101 % of control | dose: 135.0 mg/kg/injection, schedule: Q01DX Z (oral), vehicle: carboxymethylcellulose (CMC) 97 % of control

CC1=CC(=O)NP(=O)(Oc2ccc3ccccc3c2)N1 (stereo not given)
inactive: dose: 50.0 mg/kg/injection, schedule: Q01DX005 (ip), vehicle: other 95 % of control | dose: 100.0 mg/kg/injection, schedule: Q01DX005 (ip), vehicle: other 96 % of control | dose: 200.0 mg/kg/injection, schedule: Q01DX005 (ip), vehicle: other 95 % of control | dose: 400.0 mg/kg/injection, schedule: Q01DX005 (ip), vehicle: other 92 % of control

S=c1[nH]ncn1-c1ccccc1
inactive: dose: 100.0 mg/kg/injection, schedule: Q01DX009 (ip), vehicle: Klucel (hydroxypropylcellulose) (HPC) 92 % of control | dose: 200.0 mg/kg/injection, schedule: Q01DX009 (ip), vehicle: Klucel (hydroxypropylcellulose) (HPC) 93 % of control

Cc1cc(C)c(C(=O)O)c(C)c1Br
inactive: dose: 50.0 mg/kg/injection, schedule: Q01DX001 (ip), vehicle: other 98 % of control | dose: 100.0 mg/kg/injection, schedule: Q01DX001 (ip), vehicle: other 104 % of control | [10] 96 % of control | dose: 200.0 mg/kg/injection, schedule: Q01DX001 (ip), vehicle: other 96 % of control | [11] 94 % of control | dose: 400.0 mg/kg/injection, schedule: Q01DX001 (ip), vehicle: other 111 % of control | dose: 400.0 mg/kg/injection, schedule: Q04DX003 (ip), vehicle: saline with Tween-80 103 % of control

CC(CC(=O)O)C1Nc2ccccc2S(=O)(=O)C(c2ccccc2)C1=O (stereo not given)
inactive: dose: 100.0 mg/kg/injection, schedule: Q04DX003 (ip), vehicle: Klucel (hydroxypropylcellulose) (HPC) 95 % of control and 100 % of control | dose: 200.0 mg/kg/injection, schedule: Q04DX003 (ip), vehicle: Klucel (hydroxypropylcellulose) (HPC) 99 % of control

CCC#CC(=O)OCC
inactive: dose: 100.0 mg/kg/injection, schedule: Q04DX002 (ip), vehicle: saline 108 % of control | dose: 200.0 mg/kg/injection, schedule: Q04DX002 (ip), vehicle: saline 97 % of control | dose: 400.0 mg/kg/injection, schedule: Q04DX002 (ip), vehicle: saline 105 % of control

COc1ccc(CCNCC(O)CSc2cccc(C)c2)cc1OC (stereo not given)
inactive: [12] 101 % of control | [13] 95 % of control

O=C(O)c1ccc2c(c1Sc1ccccc1)C(=O)c1ccccc1C2=O
inactive: [12] 104 % of control | [13] 107 % of control | dose: 300.0 mg/kg/injection, schedule: Q01DX001 (ip), vehicle: saline 91 % of control

CCCC(Br)C(=O)OCC (stereo not given)
inactive: [10] 101 % of control | [11] 96 % of control

C[N+](C)(Cc1ccccc1)CC(O)COc1ccccc1 (stereo not given)
inactive: dose: 12.5 mg/kg/injection, schedule: Q01DX001 (ip), vehicle: saline with Tween-80 108 % of control | dose: 12.5 mg/kg/injection, schedule: Q01DX009 (ip), vehicle: saline with Tween-80 100 % of control | dose: 12.5 mg/kg/injection, schedule: Q04DX003 (ip), vehicle: saline with Tween-80 92 % of control | dose: 25.0 mg/kg/injection, schedule: Q01DX001 (ip), vehicle: saline with Tween-80 100 % of control | [14] 94 % of control | dose: 25.0 mg/kg/injection, schedule: Q04DX003 (ip), vehicle: saline with Tween-80 94 % of control | dose: 50.0 mg/kg/injection, schedule: Q01DX001 (ip), vehicle: saline with Tween-80 100 % of control | [15] 102 % of control | dose: 50.0 mg/kg/injection, schedule: Q04DX003 (ip), vehicle: saline with Tween-80 103 % of control

CC(=O)Nc1cc(C)cc(C)n1
inactive: dose: 87.5 mg/kg/injection, schedule: Q01DX009 (ip), vehicle: saline with Tween-80 113 % of control | dose: 175.0 mg/kg/injection, schedule: Q01DX009 (ip), vehicle: saline with Tween-80 102 % of control

O=C(Cc1cccc2ccccc12)N/N=C/c1ccccc1O
inactive: [14] 86 % of control | [15] 93 % of control | [16] 100 % of control and 89 % of control

CCOC(=O)/C(C)=C\c1c(C)[nH]c(=O)[nH]c1=O
inactive: [17] 87 % of control | [1] 97 % of control | [18] 94 % of control | [2] 94 % of control | dose: 400.0 mg/kg/injection, schedule: Q01DX009 (ip), vehicle: saline 86 % of control | [3] 92 % of control

COc1cc(C(=O)NCC(=O)O)cc(OC)c1OC
inactive: [17] 86 % of control | [1] 107 % of control | [18] 86 % of control | [2] 98 % of control | [3] 95 % of control

Cc1cc(NC(=O)CCc2ccc(N3C(N)=NC(N)=NC3(C)C)cc2)ccc1S(=O)(=O)F (tested in a mixture with another compound)
inactive: [7] 90 % of control | [8] 90 % of control | [9] 92 % of control

O=C(/C=N/O)Nc1ccccc1
inactive: [16] 101 % of control | dose: 200.0 mg/kg/injection, schedule: Q01DX009 (ip), vehicle: saline with Tween-80 101 % of control | dose: 400.0 mg/kg/injection, schedule: Q01DX009 (ip), vehicle: saline with Tween-80 98 % of control
